In patent publication US6528042B1, “Compositions of flavonoids for use as cytoprotectants and methods of making and using them” (Galileo Laboratories, Inc., priority 1999, dated 2003):

Assays:
GCL1 cells = assay: SYTOX cell death assay in GCL1 cells treated with antimycin A (chemical ischemia); assay type: cell-based, rat hepatoma cells (fao) / human fibroblasts (W138) hybrid
Excerpt: At greater than 80% confluence, more than 80% of the cells participate in forming one or more phaselucent, spherical structures that are located between cells, termed bile canicular-like spaces. In contrast to the majority of cell lines maintained in culture which are fermentative, GCL1 cells, when at their maximal density and polarity, are highly oxidative (i.e., they can be readily killed by inhibitors of oxidative phosphorylation or electron transport uncouplers). […] These cells are amenable to use in high throughput screening (HTS) technology.
The cells, with or without AA, are incubated at 37° C. in a 5% CO2 humidified incubator for 1 to 5 hours. […] The concentration of agents used for screening will be dependent upon the agents. Certain control groups contain 100 μl of HBSS only.
(§1) SYTOX Green nucleic acid stain is a high-affinity nucleic acid stain that easily penetrates cells with a compromised plasma membrane but will not cross the membrane of live cells. The nucleic acids of dead cells fluoresce bright green at 524 nm when excited with the 488 nm spectral source or with any other 450-500 nm source. […] In the cell viability assay chemical ischemia is created in cells and then cells are incubated with the SYTOX dye. The compound antimycin is used to simulate ischemia at the same time as stimulating the cells with forskolin. […] The assay is performed on cells grown in 96-well format allowing high throughput screening of compounds.
Aliquot at 100 μl. This 10 mM stock is then diluted to 1 mM with DMSO and aliquoted at 25 μL. Both the 10 mM and the 1 mM are stored at −20° C. until use. […] Aliquot at 100 μl and store at −20° C. until use. iv.) HBSS-SYTOX-FORSKOLIN-ANTIMYCIN (H-S-F-A) solution: H-S-F-A solution is made up fresh prior to each assay in sterile 175 ml or 225 ml Falcon bottles. […]
Cells are grown in 96-well black plates (with or without clear bottoms) at a density of 1000 cells per well for 24 hours. The necessary number of 96-well plates containing the specific cell type are obtained and placed in the laminar flow safety cabinet. A sterile microtiter basin is filled with the appropriate volume of pre-warmed 1×HBSS. Using aseptic technique and an 8-channel aspirator, the media is carefully removed from the cells and replaced with 200 μl of 1×HBSS. This is done as quickly as possible to prevent the cells drying out. The plates are then placed in the humidified 37° C. incubators of the Biomek 2000 Side Loader. Four plates are washed at a time so as to minimize the time that the cells are sitting in 1×HBSS prior to addition of the H-S-A-compound test solution.
(§2) Compound(s) are mixed with the 1 μM SYTOX working solution and added to the washed cell culture wells. Fluorescence is measured at designated time points (488 nm excitation and 530 nm emission). All of the sample readings subtract the background readings, which is cell-free wells only containing HBSS buffer with SYTOX green dye. The data is compared to non-treated cells (control) and is expressed as mean±S.D. from 4 culture wells. SYTOX Green fluorescence units obtained from each group are corrected for basal fluorescence (cell-free wells with only HBSS and fluorescence reagent). Data are represented as mean±SD. A paired t-test is performed comparing treated groups (Toxin+Agent) with non-treated groups (Toxin only) after subtracting the control groups (HBSS only) for each data set. Comparisons among groups are statistically evaluated by two-tailed t-test (Graphpad Prism Software, version 2.0). Differences are considered significant at P<0.05.
Hesperetin, diosmin, luteolin and quercetin were tested individually for their ability to counteract disruptions of normal energy metabolism. Flavonoids were commercially obtained, generally from Sigma Chemical Co., St. Louis, Mo., and/or Aldrich Chemical Co., Milwaukee, Wis.

[1] = tested on: Oxidatively competent cells; assay: SYTOX cell death assay in oxidatively competent cells treated with antimycin A; assay type: cell-based
Experimental: Oxidatively competent cells are prepared as described in Example 1. and Example 2.A and are seeded onto 96-well plates at 1×10^3/well or 2.5×10^3/well as passage 15. The cells are grown in DMEM with 10% FBS and 1.5 g/L sodium bicarbonate for 24 or 48 hours to reach 85% confluence. The cells are washed once with HBSS and then 100 μl of HBSS containing different concentration of AA (Sigma, Cat #A 8674) is added to the cells. AA is dissolved in DMSO to make a stock solution of 50 mM, then diluted with HBSS to 25, 12.5, 6.25, 3.125, and 1.56 μM for dose-response curves. The cells, with or without AA, are incubated at 37° C. in a 5% CO2 humidified incubator for 1 to 5 hours. The concentration of AA is chosen to induce 75% or 100% cell death as a screening dose to test the effect of agents to protect against AA- induced cell toxicity. The concentration of agents used for screening will be dependent upon the agents. Certain control groups contain 100 μl of HBSS only.
as §1, §2
Oxidatively competent cells were treated simultaneously with hesperetin, chrysin and 100 nM antimycin A2.C. The cells were treated with various low concentrations of hesperetin and various concentrations of chrysin (Sigma Chemical Co., cat. #C3018). Hesperetin, chrysin and antimycin A were mixed together before treating the cells. Cell viability was measured at time points up to 5 hours using SYTOX, as described in Example 2.F.
In experiments carried out in support of the invention, various concentrations of diosmin and alpha-tocopherol were tested for synergistic ability to ameliorate disruption of energy metabolism secondary to stress. Oxidatively competent cells were treated simultaneously with diosmin, alpha-tocopherol and antimycin A2.C. The cells were treated with various low concentrations of diosmin (Sigma Chemical Co., cat. #D3525) and various low concentrations of (+/−) alpha-tocopherol. Diosmin, alpha-tocopherol and antimycin were mixed together before treating cells. Cell viability was measured 4 hours after treatment using SYTOX. […] Likewise, the combination of disomin (11-100 μM) with 1.1 μg/ml (+/−) alpha tocopherol was synergistic. […] Diosmin alone provided no protection at a concentration of 100 μM. […] A combination of 100 μM diosmin and 11 μg/ml (+/−) alpha tocopherol was also synergistic. […]

[2] = cited from earlier work
[3] = 25 μM hesperetin alone, 4 hours, control cell death 82.9%

## COc1ccc([C@@H]2CC(=O)c3c(O)cc(O)cc3O2)cc1O [Hesperetin, (S)-2,3-dihydro-5,7-dihydroxy-2-(3-hydroxy-4-methoxyphenyl)-4H-1-benzopyran-4-one]
GCL1 cells; [3]
  Cell Death: 81.1%
  reduction in cell death: 1.8%
GCL1 cells; 50 μM Hesperetin alone
  protection: 14.4%
GCL1 cells; 50 μM Hesperetin alone, 4 hours, control 82.1%
  Cell Death: 81.3%
GCL1 cells; 50 μM hesperetin alone, 4 hours, control 97.4%
  Cell Death: 92.6%
GCL1 cells; 75 μM Hesperetin by itself
  protection above control level: 7.5%
GCL1 cells; Hesperetin 1.9 μM, antimycin A 100 nM, time 0:00 hr:min
  Cell Death: 0.0% ± 0.0
GCL1 cells; Hesperetin 1.9 μM, antimycin A 100 nM, time 1:45 hr:min
  Cell Death: 0.5% ± 0.6
GCL1 cells; Hesperetin 1.9 μM, antimycin A 100 nM, time 2:45 hr:min
  Cell Death: 30.4% ± 3.3
GCL1 cells; Hesperetin 1.9 μM, antimycin A 100 nM, time 3:45 hr:min
  Cell Death: 66.0% ± 3.1
GCL1 cells; Hesperetin 1.9 μM, antimycin A 100 nM, time 4:45 hr:min
  Cell Death: 81.5% ± 1.4
GCL1 cells; Hesperetin 6 μM, antimycin A 100 nM, time 0:00 hr:min
  Cell Death: 0.0% ± 0.0
GCL1 cells; Hesperetin 6 μM, antimycin A 100 nM, time 1:45 hr:min
  Cell Death: 1.8% ± 0.8
GCL1 cells; Hesperetin 6 μM, antimycin A 100 nM, time 2:45 hr:min
  Cell Death: 28.4% ± 1.5
GCL1 cells; Hesperetin 6 μM, antimycin A 100 nM, time 3:45 hr:min
  Cell Death: 65.0% ± 1.5
GCL1 cells; Hesperetin 6 μM, antimycin A 100 nM, time 4:45 hr:min
  Cell Death: 81.8% ± 0.7
GCL1 cells; Hesperetin 17 μM, antimycin A 100 nM, time 0:00 hr:min
  Cell Death: 0.0% ± 0.0
GCL1 cells; Hesperetin 17 μM, antimycin A 100 nM, time 2:45 hr:min
  Cell Death: 27.2% ± 2.0
GCL1 cells; Hesperetin 17 μM, antimycin A 100 nM, time 3:45 hr:min
  Cell Death: 64.1% ± 0.6
GCL1 cells; Hesperetin 17 μM, antimycin A 100 nM, time 4:45 hr:min
  Cell Death: 80.3% ± 1.0
GCL1 cells; Hesperetin 50 μM, antimycin A 100 nM, time 0:00 hr:min
  Cell Death: 0.0% ± 0.0
GCL1 cells; Hesperetin 50 μM, antimycin A 100 nM, time 1:45 hr:min
  Cell Death: 2.3% ± 0.3
GCL1 cells; Hesperetin 50 μM, antimycin A 100 nM, time 2:45 hr:min
  Cell Death: 14.4% ± 2.2
GCL1 cells; Hesperetin 50 μM, antimycin A 100 nM, time 3:45 hr:min
  Cell Death: 53.1% ± 5.7
GCL1 cells; Hesperetin 50 μM, antimycin A 100 nM, time 4:45 hr:min
  Cell Death: 74.0% ± 6.2
GCL1 cells; concentrations of 50 μM and below
  protective effect: little, if any, protective effect
[1]; 50 μM hesperetin alone, control 72.9%
  Cell Death: 73.4%
[1]; 2 and 50 μM hesperetin, four hours
  protection when tested separately: generally ineffective
[2]; administered orally to mice at 100 mg/kg (U.S. Pat. No. 5,650,433)
  abnormalities observed for a week: no abnormalities were observed
[2]; tests using mice
  effects on liver function: no adverse effects on liver function
  toxicity or mitogenicity: little toxicity or mitogenicity
